Experimental findings from ChEMBL document CHEMBL3243951, “Relationship between structure and antineoplastic activity of arylsulfonylhydrazones of 2-formylprydine N-oxide” (J Med Chem, 1978) are described below.

Structures are written as SMILES.

Series [1] relates to Mus musculus. Briefly: Toxicity in CD-1 mouse allografted with mouse sarcoma 180 cells assessed as change in body weight at 20 mg/kg, qd administered for 6 days measured during compound treatment (reference value: 30.2%). The class given is organism-based. The conditions noted are these: in vivo, 144 h. Also on record: dose 20 mg/kg.
Series [2] concerns Sarcoma-180. Briefly: Antineoplastic activity against mouse sarcoma 180 cells allografted in CD-1 mouse assessed as 50 day survivors at 20 mg/kg, qd administered for 6 days relative to control. The class given is functional.
For series [3], the system named is Sarcoma-180. Briefly: Antineoplastic activity against mouse sarcoma 180 cells allografted in CD-1 mouse assessed as increase in survival rate at 20 mg/kg, qd administered for 6 days relative to control. It is filed as functional.
Series [4] has as its system Sarcoma-180. The experiment in a line: Antineoplastic activity against mouse sarcoma 180 cells allografted in CD-1 mouse assessed as increase in survival rate at 60 mg/kg, qd administered for 6 days relative to control. The class given is functional.
For series [5], the system named is L1210. The experiment in a line: Antineoplastic activity against mouse L1210 cells allografted in BDF1 mouse assessed as survival time at 80 mg/kg, qd administered for 6 days (reference value: 8.4 days). It is filed as functional.
In series [6] the test system is Sarcoma-180. Briefly: Antineoplastic activity against mouse sarcoma 180 cells allografted in CD-1 mouse assessed as 50 day survivors at 60 mg/kg, qd administered for 6 days relative to control. It is filed as functional.
Series [7] has as its system Mus musculus. Briefly: Toxicity in CD-1 mouse allografted with mouse sarcoma 180 cells assessed as change in body weight at 60 mg/kg, qd administered for 6 days measured during compound treatment (reference value: 30.2%). It is filed as organism-based. Also on record: dose 60 mg/kg. The conditions noted are these: in vivo, 144 h.
Series [8] relates to Mus musculus. The experiment in a line: Toxicity in BDF1 mouse allografted with mouse L1210 cells assessed as change in body weight at 80 mg/kg, qd administered for 6 days measured during compound treatment (reference value: 14.8%). Details: dose 80 mg/kg. As to conditions: in vivo, 144 h. The class given is organism-based.
Series [9] has as its system Mus musculus. Briefly: Toxicity in CD-1 mouse allografted with mouse sarcoma 180 cells assessed as change in body weight at 80 mg/kg, qd administered for 6 days measured during compound treatment (reference value: 30.2%). Details: dose 80 mg/kg. It is filed as organism-based. As to conditions: in vivo, 144 h.
The test system of series [10] is Sarcoma-180. Briefly: Antineoplastic activity against mouse sarcoma 180 cells allografted in CD-1 mouse assessed as 50 day survivors at 80 mg/kg, qd administered for 6 days relative to control. The class given is functional.
The subject of series [11] is Sarcoma-180. Briefly: Antineoplastic activity against mouse sarcoma 180 cells allografted in CD-1 mouse assessed as increase in survival rate at 80 mg/kg, qd administered for 6 days relative to control. It is filed as functional.
Series [12] relates to Sarcoma-180. Briefly: Antineoplastic activity against mouse sarcoma 180 cells allografted in CD-1 mouse assessed as 50 day survivors at 40 mg/kg, qd administered for 6 days relative to control. The class given is functional.
Series [13] deals with Mus musculus. Briefly: Toxicity in CD-1 mouse allografted with mouse sarcoma 180 cells assessed as change in body weight at 40 mg/kg, qd administered for 6 days measured during compound treatment (reference value: 30.2%). It is filed as organism-based. Details: dose 40 mg/kg. As to conditions: in vivo, 144 h.
Series [14] deals with Sarcoma-180. Briefly: Antineoplastic activity against mouse sarcoma 180 cells allografted in CD-1 mouse assessed as increase in survival rate at 40 mg/kg, qd administered for 6 days relative to control. It is filed as functional.
Series [15] relates to Mus musculus. The experiment in a line: Toxicity in BDF1 mouse allografted with mouse L1210 cells assessed as change in body weight at 60 mg/kg, qd administered for 6 days measured during compound treatment (reference value: 14.8%). The class given is organism-based. Also on record: dose 60 mg/kg. As to conditions: in vivo, 144 h.
Series [16] relates to L1210. The experiment in a line: Antineoplastic activity against mouse L1210 cells allografted in BDF1 mouse assessed as survival time at 60 mg/kg, qd administered for 6 days (reference value: 8.4 days). The class given is functional.
Series [17] relates to L1210. The experiment in a line: Antineoplastic activity against mouse L1210 cells allografted in BDF1 mouse assessed as survival time at 100 mg/kg, qd administered for 6 days (reference value: 8.4 days). It is filed as functional.
Series [18] deals with Mus musculus. Briefly: Toxicity in BDF1 mouse allografted with mouse L1210 cells assessed as change in body weight at 100 mg/kg, qd administered for 6 days measured during compound treatment (reference value: 14.8%). It is filed as organism-based. Details: dose 100 mg/kg. The conditions noted are these: in vivo, 144 h.

In general, T/C refers to the result in the treated group divided by that in the control group, in per cent.

Take `O=S(=O)(N/N=C/c1cc(N2CCOCC2)cc[n+]1[O-])c1ccccc1`: the Activity with Mus musculus [1] came out at 1.4%. Further, the survival at 20 mg/kg in the series with Sarcoma-180 [2] came out at 0%. For the same compound, the T/C in the series with Sarcoma-180 [3] was 242%.

Take `Cc1ccc(S(=O)(=O)N/N=C/c2cccc[n+]2[O-])cc1`: the T/C in the series with Sarcoma-180 [4] was found to be 307%. Besides, the Survival in the series with L1210 [5] came to 14.3 days. Besides, the survival at 60 mg/kg in the series on Sarcoma-180 [6] worked out at 0%. Besides, the Activity in the series on Mus musculus [7] is listed as -8%; in the series on Mus musculus [8], -7.4%.

As for `Nc1cccc(S(=O)(=O)N/N=C/c2cccc[n+]2[O-])c1`, the Activity in the series on Mus musculus [9] is -10.3%. Besides, the survival at 80 mg/kg with Sarcoma-180 [10] is 0%. Besides, the T/C with Sarcoma-180 [11] came to 364%.

Take `O=S(=O)(N/N=C/c1cccc[n+]1[O-])c1cccnc1`: the T/C in the series with Sarcoma-180 [4] worked out at 276%. Further, the survival at 60 mg/kg in the series on Sarcoma-180 [6] is 0%. In addition, the Activity in the series on Mus musculus [7] is on record as 0%.

`O=S(=O)(N/N=C/c1cccc[n+]1[O-])c1ccccc1`: the survival at 40 mg/kg with Sarcoma-180 [12] came to 20%. In addition, in the series on L1210 [5], the Survival was determined as 10.6 days. Besides, the Activity in the series with Mus musculus [8] is given as -8%; with Mus musculus [13], -5.2%. For the same compound, the T/C in the series on Sarcoma-180 [14] is 339%.

For the compound `C/C(=N\NS(=O)(=O)c1ccccc1)c1cccc[n+]1[O-]`, the T/C in the series with Sarcoma-180 [4] stood at 130%. Besides, the survival at 60 mg/kg in the series with Sarcoma-180 [6] came out at 0%. Also, the Activity in the series on Mus musculus [7] is 23.5%.

Take `O=S(=O)(N/N=C/c1cccc[n+]1[O-])c1ccc(F)cc1`: the T/C with Sarcoma-180 [4] is 337%. Further, the Activity in the series with Mus musculus [15] was 1.6%; with Mus musculus [7], -5.7%. Also, in the series with L1210 [16], the Survival was 11.8 days. In addition, the survival at 60 mg/kg with Sarcoma-180 [6] is 20%.

Consider `O=S(=O)(N/N=C/c1cccc[n+]1[O-])c1ccc2ccccc2c1`, for which the T/C in the series on Sarcoma-180 [4] came out at 308%. In addition, in the series with Sarcoma-180 [6], the survival at 60 mg/kg turned out to be 0%. Moreover, in the series on Mus musculus [7], the Activity was -1.2%.

As for `O=S(=O)(N/N=C/c1cccc[n+]1[O-])c1ccc(Cl)cc1`, the survival at 40 mg/kg with Sarcoma-180 [12] turned out to be 0%. The Activity with Mus musculus [13] was -0.6%. In addition, the T/C in the series on Sarcoma-180 [14] worked out at 260%.

`O=[N+]([O-])c1ccc(S(=O)(=O)N/N=C/c2cccc[n+]2[O-])cc1`: the Activity in the series on Mus musculus [9] is recorded as -7.1%. In addition, the survival at 80 mg/kg in the series on Sarcoma-180 [10] was 10%. Further, in the series on Sarcoma-180 [11], the T/C turned out to be 345%.

As for `O=[N+]([O-])c1cc[n+]([O-])c(/C=N/NS(=O)(=O)c2ccccc2)c1`, the T/C in the series with Sarcoma-180 [4] is listed as 293%. The survival at 60 mg/kg with Sarcoma-180 [6] is 0%. Further, the Activity in the series on Mus musculus [7] is recorded as -5.4%.

Consider `O=S(=O)(N/N=C/c1cccc[n+]1[O-])c1cccc2ccccc12`, for which the T/C in the series on Sarcoma-180 [4] came to 261%. Also, the survival at 60 mg/kg in the series on Sarcoma-180 [6] was 0%. For the same compound, the Activity in the series with Mus musculus [7] is listed as -3.4%.

As for `Nc1ccc(S(=O)(=O)N/N=C/c2cccc[n+]2[O-])cc1`, the T/C with Sarcoma-180 [4] was found to be 276%. The survival at 60 mg/kg with Sarcoma-180 [6] was 0%. The Activity with Mus musculus [7] stood at 2.4%.

Consider `O=[N+]([O-])c1cccc(S(=O)(=O)N/N=C/c2cccc[n+]2[O-])c1`, for which, in the series with Sarcoma-180 [4], the T/C is given as 390%. Further, the Survival with L1210 [5] came to 12.4 days. Also, in the series with Sarcoma-180 [6], the survival at 60 mg/kg was found to be 60%. In addition, the Activity is on record as -7.5% with Mus musculus [7] and -5.4% with Mus musculus [8].

For the compound `O=S(=O)(N/N=C/c1cccc[n+]1[O-])c1ccc(Br)cc1`, the survival at 40 mg/kg in the series with Sarcoma-180 [12] amounted to 0%. Besides, in the series with Mus musculus [13], the Activity was -3.5%. Besides, the T/C in the series on Sarcoma-180 [14] is reported as 240%.

Regarding `O=S(=O)(N/N=C/c1cccc[n+]1[O-])c1ccc2c(c1)Cc1ccccc1-2`, the survival at 40 mg/kg in the series on Sarcoma-180 [12] was 0%. For the same compound, the Activity in the series with Mus musculus [13] is reported as -4.7%. In the series with Sarcoma-180 [14], the T/C is 276%.

For `Cc1ccccc1S(=O)(=O)N/N=C/c1cccc[n+]1[O-]`, the T/C in the series with Sarcoma-180 [4] turned out to be 285%. Further, the Survival in the series with L1210 [17] is 19.9 days. In addition, the survival at 60 mg/kg in the series on Sarcoma-180 [6] turned out to be 0%. For the same compound, the figures for the Activity in the series on Mus musculus [7] and with Mus musculus [18] were -1.9% and -11.1%, respectively.

Regarding `O=S(=O)(N/N=C/c1cc(Cl)cc[n+]1[O-])c1ccccc1`, the Activity with Mus musculus [1] came out at 10.8%. Further, in the series on Sarcoma-180 [2], the survival at 20 mg/kg stood at 0%. Further, the T/C in the series with Sarcoma-180 [3] is recorded as 156%.

As to `COc1ccc(S(=O)(=O)N/N=C/c2cccc[n+]2[O-])cc1`, the Activity in the series on Mus musculus [9] is listed as -11.6%; in the series on Mus musculus [8], -4.9%. The Survival with L1210 [5] came out at 19.7 days. The survival at 80 mg/kg with Sarcoma-180 [10] is 40%. Further, the T/C in the series with Sarcoma-180 [11] is on record as 356%.

Regarding `O=C(NNS(=O)(=O)c1ccccc1)c1cccc[n+]1[O-]`, the survival at 40 mg/kg in the series with Sarcoma-180 [12] was 0%. Besides, the Activity with Mus musculus [13] is on record as 20.7%. In addition, the T/C with Sarcoma-180 [14] was determined as 107%.
